Experiments:
[1] = test system: recombinant E. coli strain TV 1048; assay: Bioluminescence method (light-off response) with recombinant E. coli strain TV 1048; type: cell-based; conditions: at 5 min; by interpolation of bioluminescence against concentration curves
[2] = test system: Staphylococcus aureus; conditions: reported results; cited from earlier work

For CCCCCCCCCCCC[N+](C)(C)C.[Cl-] [DTAC, n-dodecyltrimethyl ammonium chloride], the “EC50 (concentration causing a 50% reduction of the bioluminescence)” value [1] is listed as “about 2000 ppm” and the “effectiveness against S. aureus compared with D4ClNC12 (in words)” value [2] is listed as “Somewhat less effective”.
